Article PMC12120630, “Nicotianin-I: A Tobacco Floral Nectar Peptide with Anticandidal Activity” (ACS Omega, 2025)
In brackets after ≈: the same amount, converted by molar mass. Several values for one entry are separate records, joined by “and”; a condition that tells them apart may be missing. Equal values may be shown once. Residues, ends and D or L forms follow the SMILES beside them.

Key:
zebrafish embryos = settings: cited from earlier work
C. parapsilosis = test system: C. parapsilosis; parameters: method as in PMID 35456530; settings: cited from earlier work
C. albicans = settings: cited from earlier work
[1] = test system: C. albicans, C. krusei, C. parapsilosis, and C. tropicalis; experiment: Anticandidal activity, statements for all strains tested; assay type: cell-based, Candida spp.; settings: peptide 200 to 1.56 μM, 24 h, 37 °C
Description: (§1) The anticandidal activity was performed against the following species: C. albicans (ATCC 10231), C. krusei (ATCC 22019), C. parapsilosis (ATCC 6258), and C. tropicalis (INCQS 40042). The cell concentration was standardized by OD600 nm to achieve a concentration of 1.5 × 10^3 CFU/mL. The assays were performed using 96-well microplates, mixing the cell suspensions (100 μL) with 100 μL of each peptide serially diluted (200 to 1.56 μM, final concentrations) in 0.15 M NaCl containing 5% DMSO (dimethyl sulfoxide), which was used as a control. The plates were incubated for 24 h at 37 °C under agitation (150 rpm), and the readings were done at 600 nm using a Microtiter Plate Reader. The results are shown as the percentage of growth, considering the OD600 nm of the control as 100%.

C. albicans (ATCC 10231) = assay type: cell-based, Candida albicans; settings: ATCC 10231, 24 h
Description: as §1

[2] = test system: C. tropicalis (INCQS 40042); assay type: cell-based, Candida tropicalis; settings: INCQS 40042, 24 h
Description: as §1

[3] = test system: L929 (murine fibroblast) cells; settings: L929, 200 μM
Description: Cell viability of peptide-treated fibroblast cells was tested by the MTT method. Shortly, L929 cells were trypsinized (trypsin–EDTA solution) and seeded into 96-well plates with DMEM (100 μL) at 1 × 10^5 cells/mL for 48 h, followed by the addition of the same volume of serially diluted nicotianin-I (200–1.56 μM) and negative control (0.15 M NaCl). The images were captured with the aid of an optical microscope coupled with phase contrast (AE200, Motic, Barcelona, CT, ES) under 200× magnification. Finally, 10 μL of 5 mg/mL MTT was added to each well, and the mixture was incubated at 37 °C for 3 h. Formazan was solubilized with DMSO (150 μL), and the OD570 nm was measured in a microplate reader.

[4] = test system: human erythrocyte (type O); settings: 200 μM; 1% human erythrocytes, 1 h, 37 °C, OD414; relative to 0.1% Triton-X-100
Description: To assess a possible indicator of cytotoxicity, 150 μL of nicotianin-I, serially diluted with 0.15 M NaCl containing 5% DMSO, was incubated at 37 °C for 1 h with the same volume of 1% human erythrocyte (type O), which was obtained from the Hematology and Hemotherapy Center of Ceará, Brazil. Samples were centrifuged for 5 min at 2500g, and the supernatant was transferred to 96-well microplates. Released hemoglobin content was measured at OD414 nm. 0.1% Triton-X-100 and 0.15 M NaCl containing 5% DMSO were used as the positive and negative controls, respectively.

[5] = test system: C. parapsilosis (ATCC 6258); assay type: cell-based, Candida parapsilosis; settings: ATCC 6258, 24 h
Description: as §1

[6] = test system: Zebrafish embryos (AB wild-type strain); experiment: Fish Embryo Acute Toxicity (FET) test, OECD 236 adapted for 96-well plate; assay type: in vivo
Description: Zebrafish embryos (AB wild-type strain) with approximately 1 h postfertilization (hpf) were provided by the Production Unit for Alternative Model Organisms (UniPOM), Federal University of Paraiba (UFPB), João Pessoa, Brazil. A day before the experiment, zebrafish adults (male/female ratio of 2:1) were transferred to a 7 L spawning tank with a bottom mesh and a quick-opening valve for embryo collection. Embryos were collected on the day of the experiment and cultured in the adapted embryonic medium E3 (5.0 mM NaCl, 0.17 mM KCl, 0.33 mM CaCl, and 0.33 mM MgSO4) containing 0.005% methylene blue. Only spawnings with a fertilization rate ≥90% were used. Viable embryos (normal cleavage pattern and without morphological changes) were selected using an inverted light microscope (Televal 31, Zeiss, Germany) at 50× magnification. The experiments were approved by the Ethics Committee on the Use of Animals at UFPB, with authorization documented by protocol no. 4460140920.
The Fish Embryo Acute Toxicity (FET test) test was conducted according to OECD’s guideline number 236 adapted for 96-well plate, as described by Muniz et al. Zebrafish embryos with up to 3 hpf were exposed to five concentrations (6.25, 12.5, 25, 50, and 100 μg/mL) of nicotianin-I, with the last concentration being adopted as a limit concentration. Twenty wells were filled with 0.3 mL of E3 medium and 1 embryo. In the same conditions, E3 medium and 0.15 M NaCl containing 5% DMSO were used as controls.
Embryos showing lethality end points (embryo coagulation, lack of somite formation, nondetachment of the tail bud, and lack of heartbeat) were considered dead. This number was used to determine the survival rate % [number of alive organisms/total number of organisms × 100] per tested concentration. The exposures were under static conditions (without renovation of the exposure solution). Observations were performed using a stereomicroscope at a 50× magnification. After 96 h, the surviving larvae were euthanized with eugenol and properly discarded.

C. krusei (ATCC 22019) = assay type: cell-based, Candida krusei; settings: ATCC 22019, 24 h
Description: as §1

Question: For `C[C@@H]1[C@H](O)[C@@H](C)/C=C/C=C/CC/C=C/C=C/C=C/C=C/C(O[C@H]2O[C@H](C)[C@@H](O)[C@H](N)[C@@H]2O)CC2O[C@](O)(CC(O)C(O)CCC(O)CC(O)CC(O)CC(=O)O[C@H]1C)CC(O)C2C(=O)O` (some centres unmarked) [nystatin], which LC50 (zebrafish embryos; zebrafish embryos at 120 h postfertilization) is on record?
Answer: The LC50 was 6.2 mg/L (≈ 6.69 µM).

Question: And the “exposure concentration causing cardiac abnormalities (pericardial edema, reduced heartbeat)” value (zebrafish embryos; zebrafish embryos, Nys 3 × MIC, AmB 3.2 × MIC)?
Answer: The value was 3 µg/mL.

Question: What about the MIC (C. parapsilosis) of the same molecule?
Answer: Its MIC is 1 mg/L (≈ 1.08 µM).

Question: What about the MIC (C. albicans) of the same molecule?
Answer: Its MIC is 1 mg/L (≈ 1.08 µM).

Question: For “EYCSAKSAKPGVHCRSCALVNMYK [Pep2, ornamental tobacco floral nectar peptide […]]”, which “in vitro antifungal activity (growth inhibition), in words” value [1] is on record?
Answer: The value was “negligible or no significant inhibition”.

Question: For “WKCGSTPAPRKYCTCVAKMW [Pep4, ornamental tobacco floral nectar peptide […]]”, which “in vitro antifungal activity (growth inhibition), in words” value [1] is on record?
Answer: The value was “negligible or no significant inhibition”.

Question: With “HRFSYMCFVAQVLNKDYCSCCKF [Pep5, ornamental tobacco floral nectar peptide […]]” as the molecule, how does the “in vitro antifungal activity (growth inhibition), in words” value [1] read?
Answer: Its value is “negligible or no significant inhibition”.

Question: For `C[C@@H]1[C@H](O)[C@@H](C)/C=C/C=C/C=C/C=C/C=C/C=C/C=C/[C@H](O[C@@H]2O[C@H](C)[C@@H](O)[C@H](N)[C@@H]2O)C[C@@H]2O[C@](O)(C[C@@H](O)C[C@@H](O)[C@H](O)CC[C@@H](O)C[C@@H](O)CC(=O)O[C@H]1C)C[C@H](O)[C@H]2C(=O)O` [Amphotericin B], which MIC (C. parapsilosis) is on record?
Answer: Its MIC is 0.25 mg/L (≈ 0.271 µM).

Question: What about the MIC (C. albicans) of the same molecule?
Answer: Its MIC is 0.25 mg/L (≈ 0.271 µM).

Question: Which results are given for `CC(C)C[C@H](NC(=O)[C@H](CS)NC(=O)[C@H](Cc1ccc(O)cc1)NC(=O)CNC(=O)[C@H](Cc1c[nH]cn1)NC(=O)[C@H](CCCNC(=N)N)NC(=O)[C@@H](NC(=O)[C@H](CS)NC(=O)[C@H](CO)NC(=O)[C@H](Cc1ccc(O)cc1)NC(=O)[C@H](Cc1c[nH]cn1)NC(=O)[C@@H](N)CCCCN)[C@@H](C)O)C(=O)N[C@@H](C)C(=O)N[C@@H](CS)C(=O)N[C@@H](Cc1ccc(O)cc1)C(=O)N[C@@H](CCCCN)C(=O)N[C@@H](CCCNC(=N)N)C(=O)N[C@@H](Cc1c[nH]c2ccccc12)C(=O)N[C@@H](Cc1ccccc1)C(=O)O` [nicotianin-I] (H-KHYSCTRHGYCLACYKRWF-OH)?
Answer: IC50 (C. albicans (ATCC 10231)): 80 ± 4.6 µM; MIC (C. albicans (ATCC 10231)): 120 ± 9.3 µM (≈ 291 µg/mL); IC50 [2]: 24 ± 1.9 µM; MIC [2]: 86 ± 3.6 µM (≈ 208 µg/mL); cytotoxicity to fibroblasts, in words ([3]; MTT and phase contrast microscopy): no cytotoxicity; maximum percentage of hemolysis [4]: 28.1%; IC50 [5]: 46 ± 2.2 µM; MIC [5]: 141 ± 7.1 µM (≈ 342 µg/mL); survival rate ([6]; 50 μg/mL (21 μM), 96 h exposure, static, 20 embryos per concentration): 90%; mortality rate ([6]; 100 μg/mL or 42 μM (highest concentration), as stated in the abstract): 40%; blood clotting ([6]; 6.25–100 μg/mL, 96 h): n.e. (n.e.: no effect or less than 20% of embryos affected); body pigmentation ([6]; 6.25–100 μg/mL, 96 h): n.e. (n.e.: no effect or less than 20% of embryos affected); eye malformation ([6]; 6.25–100 μg/mL, 96 h): n.e. ^b (n.e.: no effect or less than 20% of embryos affected); granules around the embryo (LOAEL) ([6]; 6.25–100 μg/mL, 96 h): 100 µg/mL; hatching delay (LOAEL) ([6]; 6.25–100 μg/mL, 96 h): 100 µg/mL; mouth malformation ([6]; 6.25–100 μg/mL, 96 h): n.e. (n.e.: no effect or less than 20% of embryos affected); otolith malformation ([6]; 6.25–100 μg/mL, 96 h): n.e. (n.e.: no effect or less than 20% of embryos affected); pericardial edema ([6]; 6.25–100 μg/mL, 96 h): n.e; spine malformation ([6]; 6.25–100 μg/mL, 96 h): n.e. (n.e.: no effect or less than 20% of embryos affected); undersize ([6]; 6.25–100 μg/mL, 96 h): n.e. (n.e.: no effect or less than 20% of embryos affected); yolk sac edema ([6]; 6.25–100 μg/mL, 96 h): n.e. (n.e.: no effect or less than 20% of embryos affected); lowest observed adverse effect level (LOAEL) ([6]; nonlethal effects: hatching delay, granules around the embryo): 100 µg/mL; LC50 (mortality) ([6]; zebrafish embryos, 96 h exposure): 131 mg/L and 131.85 mg/L; LC50 ([6]; zebrafish embryos, 96 h exposure, same value given in μM): 54 µM; IC50 (C. krusei (ATCC 22019)): 57 ± 3.7 µM; MIC (C. krusei (ATCC 22019)): 133 ± 8.6 µM (≈ 322 µg/mL)

Question: Which results are given for `CC(C)[C@H](N)C(=O)N[C@@H](CS)C(=O)N1CCC[C@H]1C(=O)N[C@@H](CS)C(=O)N[C@@H](C)C(=O)N[C@@H](CS)C(=O)N[C@@H](CS)C(=O)N[C@@H](CO)C(=O)N[C@H](C(=O)N1CCC[C@H]1C(=O)N[C@@H](CCCNC(=N)N)C(=O)N[C@@H](CCCNC(=N)N)C(=O)N[C@H](C(=O)O)C(C)C)[C@@H](C)O` [Pep1] (H-VCPCACCSTPRRV-OH; N-terminus and C-terminus assumed)?
Answer: reduction of cellular viability (up to) ([3]; MTT, OD570): 80.95%; in vitro antifungal activity (growth inhibition), in words [1]: negligible or no significant inhibition

Question: For “LHSGEGSTCYFFKTNPCCCGTWNCT [Pep3, ornamental tobacco floral nectar peptide […]]”, which “in vitro antifungal activity (growth inhibition), in words” value [1] is on record?
Answer: Its value is “negligible or no significant inhibition”.
